# Assay results from patent US20220324835A1 (Nurix Therapeutics, Inc., priority 2018, published 2022).
# Experiments:
# [1] = system: T-cell; experiment: IL-2 secretion from T-cells stimulated with anti-CD3 antibody alone (Biological Example 2); assay type: cell-based; details: 1 μM compound, primary human total T-cells, read-out: IL-2 secretion, Anti-CD3 stimulation, fold change over baseline
# [2] = system: human T-cells with allogenic immature dendritic cells; experiment: Allogenic mixed lymphocyte reaction (MLR), T-cell proliferation; assay type: cell-based; details: 120 h, 5 days, baseline T-cells without Cbl-b inhibitor, read-out: Proliferation, fold change over baseline
# Description: Cbl-b inhibitor effects on primary human T-cells were also evaluated in the context of an allogenic mixed lymphocyte reaction (MLR). Allogenic immature dendritic cells were generated under the following conditions. Peripheral blood mononuclear cells (PBMC) were obtained either: 1) by using Ficoll-Paque™ (GE Healthcare) for separation of peripheral blood hematopoietic cells from huffy coats of healthy human donors; or 2) directly from LeukoPak donations. […] Monocytes were cultured with 30 ng/mL of recombinant human GM-CSF and 20 ng/mL of recombinant human IL-4 for seven days to generate immature dendritic cells. Monocytes and T-cells were either isolated fresh from peripheral blood or thawed from frozen stocks. Human T-cells were isolated, labeled with CFSE and incubated with inhibitors as described above. […] Proliferation of the T-cells was evaluated by flow cytometry.
# Readouts for the allogenic mixed lymphocyte reaction were reported as fold change over baseline. Baseline for this study was the measurement obtained from total human T-cells stimulated with allogenic immature dendritic cells, wherein the T-cells were not incubated with a Cbl-b inhibitor (Table 5). Increases in proliferation greater than 2-fold over baseline were considered a positive response (Table 5).
# [3] = system: T-cells; experiment: In vivo activity: CD25 expression on CD4+ or CD8+ T-cells of mice stimulated with anti-CD3 antibody; details: 2 μg anti-CD3 antibody, 24 hours
# How it was run: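 C57BL/6 or BALB/c mice dosed with inhibitor (IV, IP, SC or PO, e.g. BID or TID), then stimulated with 2 μg anti-CD3 antibody. Plasma IL-2, IFNγ, TNFα at 8 h and CD25 on CD4+/CD8+ T-cells by flow cytometry at 24 h; fold change over vehicle plus anti-CD3, binned A–E.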
compound,measurement,setting,value
"Cn1cnnc1CC1(c2cccc(N3Cc4c(cc(CN5CCC6(CC6)C5)cc4C(F)(F)F)C3=O)c2)COC1 [Compound 520, 6-((5-azaspiro[2.4]heptan-5-yl)methyl)-2-(3-(3-((4-methyl-4H-1,2,4-triazol-3-yl)methyl)oxetan-3-yl)phenyl)-4-(trifluoromethyl)isoindolin-1-one]",fold induction at 1 µM,[1],> 0.201
same,fold induction at 3 µM,[2]; 3 μM,> 3.01
same,fold induction at 10 µM,[2]; 10 μM,> 3.01
same,CD4+ T-cell % CD25+,[3]; 45 mpk PO BID,D (D indicates 1.00-1.50)
same,CD8+ T-cell % CD25+,[3]; 45 mpk PO BID,D (D indicates 1.00-1.50)
same,CD4+ T-cell % CD25+,[3]; 90 mpk PO BID,D (D indicates 1.00-1.50)
same,CD8+ T-cell % CD25+,[3]; 90 mpk PO BID,D (D indicates 1.00-1.50)
same,CD4+ T-cell % CD25+,[3]; 135 mpk PO BID,C (C indicates 1.51-2.00)
same,CD8+ T-cell % CD25+,[3]; 135 mpk PO BID,D (D indicates 1.00-1.50)
same,CD4+ T-cell % CD25+,[3]; 180 mpk PO BID,B (B indicates 2.01-2.50)
same,CD8+ T-cell % CD25+,[3]; 180 mpk PO BID,D (D indicates 1.00-1.50)
